Drawing on US10487088B2, “Tricyclic compound serving as immunomodulator” (Chia Tai Tianqing Pharmaceutical Group Co., Ltd., priority 2016, dated 2019), this text covers IC50 for 31 compounds.

Assay [1] addresses T1, recombinant human IDO1 enzyme (Homo sapiens, UniProt P14902).
T1 construct: purchased NTRC NTRC-hlDO-10K
As to the kind of experiment: In vitro hIDO1 enzyme activity test (NFK Green fluorescence). The settings on record: recombinant human IDO1, L-tryptophan substrate, pH 6.5. The assay is classed as biochemical. How it is done:
The change of NFK production was detected by using the NFK Green™ fluorescent molecule, which is the metabolite of the IDO1 enzyme, and the IC50 value of the compound was used as an index, to evaluate the inhibitory effect of the compound on the recombinant human IDO1 enzyme.
IDO1 Enzyme Activity Assay Kit, NTRC # NTRC-hlDO-10K;
The compound was diluted to 1 mM in DMSO, and then diluted 3-fold in duplicate wells, with 10 gradients. 48 μL of 50 mM phosphate buffer (pH 6.5) was transferred to the compound plate via Bravo automated liquid handling platform. 2 μL of the diluted solution of the compound in DMSO was then added and mixed, followed by transferring 10 μL therein to an enzyme reaction plate.
The IDO1 enzyme was diluted to 20 nM in the reaction buffer (50 mM phosphate buffer pH 6.5, 0.1% Tween-20, 2% glycerol, 20 mM ascorbic acid, 20 μg/mL catalase and 20 μM methylene blue), and 20 μL of the solution was transferred to an enzyme reaction plate and incubated at 23° C. for 30 min. The reaction was started by adding 10 μL of 400 μM L-type tryptophan substrate and incubated at 23° C. for 90 min. 10 μL of NFK Green™ fluorescent dye was added, and the plate was sealed with the sealing film, incubated at 37° C. for 4 h, and then read on Envision Multimode Plate Reader (Ex 400 nm/Em 510 nm).
The control wells with the IDO1 enzyme but no compound was set as 0% inhibition, and the control wells without the IDO1 enzyme was set as 100% inhibition, and the IC50 value of the compound was calculated by analyzing the data with XLFit 5.

Assay [2] deals with T2, IDO1 enzyme in Hela cells (Homo sapiens, UniProt P14902).
T2 construct: recombinant human γ-interferon was added at a final concentration of 100 ng/mL to induce IDO1 expression; endogenous in cells; host or cells: Hela cells, induced with recombinant human γ-interferon
T2 sequence (P14902 whole entry): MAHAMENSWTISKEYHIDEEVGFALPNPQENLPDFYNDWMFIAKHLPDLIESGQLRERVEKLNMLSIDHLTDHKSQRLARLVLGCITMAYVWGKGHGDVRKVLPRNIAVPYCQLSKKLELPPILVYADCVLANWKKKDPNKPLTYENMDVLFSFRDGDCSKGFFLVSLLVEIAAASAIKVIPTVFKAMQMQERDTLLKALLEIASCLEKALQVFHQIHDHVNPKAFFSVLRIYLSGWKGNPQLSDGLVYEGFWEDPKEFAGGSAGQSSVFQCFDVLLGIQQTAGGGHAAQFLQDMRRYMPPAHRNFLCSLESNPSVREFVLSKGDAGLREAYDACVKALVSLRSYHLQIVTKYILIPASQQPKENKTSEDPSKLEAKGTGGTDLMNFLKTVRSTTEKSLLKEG
Kind of assay: hIDO1 cytological activity assay (kynurenine in Hela cells by LC-MS). In kind it is cell-based. The settings on record: Hela cells induced with 100 ng/mL recombinant human γ-interferon, 20 h, read-out: IC50 hIDO1 Cytoactive. How it is done:
The change of kynurenine in Hela cells was detected by the LC-MS method, and the IC50 value of the compound was used as an index, to evaluate the inhibitory effect of the compound on IDO1 enzyme.
A medium, trypsin and DPBS were pre-heated in a 37° C. water bath. The medium for cell culture was sucked out and washed with 10 mL of DPBS; then the pre-heated trypsin was added into the culture flask, and the flask was rotated to allow the trypsin to uniformly cover it, and then placed in a 37° C., 5% CO2 incubator and digested for 1-2 min; in each T150, cells were dispersed with 10-15 mL of medium, centrifuged at 800 rpm for 5 min, and then resuspended in 10 mL of medium; 1 mL of cell suspension was pipetted and the cells were counted with Vi-cell; Hela cells were diluted with medium to 5×10^5/mL, 80 μL of the solution was added to a 96-cell plate, and cultured at 37° C. for 5-6 h in a 5% CO2 incubator.
The compound was diluted to 1 mM in DMSO, and then diluted 3-fold in duplicate wells, with 9 gradients. 5 μL of the diluted solution of the compound in DMSO was added to the compound plate containing 95 μL of the medium, and mixed, followed by transferring 10 μL of the mixture to a cell plate.
10 μL of recombinant human γ-interferon was added at a final concentration of 100 ng/mL to induce IDO1 expression. The cells were incubated at 37° C. for 20 h in a 5% CO2 incubator. 4 μL of 5% (w/v) trichloroacetic acid was added thereto, mixed and incubated at 50° C. for 30 min. After centrifugation at 2400 rpm for 10 min, 40 μL of the supernatant was taken and placed in a 96-well V-bottom plate, and then a precipitant was added in the plate. After mixing, the mixture was centrifuged at 4000 rpm for 10 min. 100 μL of the supernatant was transferred to a new 96-well V-bottom plate. The content of kynurenine was determined by LC-MS.
The control wells having γ-interferon but no compound was set as 0% inhibition, and the control wells without Hela cell was set as 100% inhibition, and the IC50 value of the compound was calculated by analyzing the data with XLFit 5.

T1 sequence (P14902 whole entry): as above

One may read the IC50 as the midpoint of a concentration-inhibition curve. Turning to `c1cc2c(s1)C(CCC1CCCCC1)n1cncc1-2` (single isomer, unassigned) [Example 9, 8-(2-cyclohexyl)-8H-thieno[3,4]pyrrolo[1,5-a]imidazole], the figures for the 50% inhibitory concentration (IC50) in assay [1] and in assay [2] were 55 nM and 17.5 nM, respectively.

Regarding `c1cc2c(s1)C(CCC1CCCCC1)n1cncc1-2` (single isomer, unassigned) [Example 10, 8-(2-cyclohexyl)-8H-thieno[3,4]pyrrolo[1,5-a]imidazole], the figures for the IC50 in assay [1] and in assay [2] were greater than 10000 nM and greater than 5000 nM, respectively.

With `c1cc2c(s1)C(C1CCCCC1)n1cncc1-2` (single isomer, unassigned) [Example 14, 8-cyclohexyl-8H-thieno[3,4]pyrrolo[1,5-a]imidazole], the IC50 amounted to 65.9 nM in assay [1] and 220 nM in assay [2].

`c1cc2c(s1)C(CC1CCCCC1)n1cncc1-2` (single isomer, unassigned) [Example 16, 8-(cyclohexylmethyl)-8H-thieno[3,4]pyrrolo[1,5-a]imidazole]: the IC50 in assay [1] was 71 nM; in assay [2], 911 nM.

`FC1(F)CCC(CCC2c3sccc3-c3cncn32)CC1` (single isomer, unassigned) [Example 22, 8-(2-(4,4-difluorocyclohexyl)ethyl)-8H-thieno[3′,2′:3,4]pyrrolo[1,2-c]imidazole]: the figures for the IC50 in assay [1] and in assay [2] were 23.1 nM and 212 nM, respectively.

In the case of `O[C@@H](C[C@@H]1c2sccc2-c2cncn21)C1CCOCC1` (single isomer, unassigned) [Example 28], the half-inhibitory concentration (IC50) in assay [1] was greater than 10000 nM; in assay [2], greater than 5000 nM.

On to `O[C@@H](C[C@H]1c2sccc2-c2cncn21)C1CCOCC1` (single isomer, unassigned) [Example 29], for which the IC50 amounted to 51.6 nM in assay [1] and 117 nM in assay [2].

Turning to `FC1(F)CCC([C@H]2c3sccc3-c3cncn32)CC1` (single isomer, unassigned) [Example 41], the IC50 in assay [1] is 48 nM; in assay [2], 74.9 nM.

Take `OCC1(C2c3sccc3-c3cncn32)CCCCC1` (single isomer, unassigned) [Example 42, [1-(8H-thieno[3,4]pyrrolo[1,5-a]imidazol-8-yl)cyclohexyl]methanol]: the results for the IC50 in assay [1] and in assay [2] were 253 nM and 779 nM, respectively.

Take `OC1CCCCC1C1c2sccc2-c2cncn21` (single isomer, unassigned) [Example 53, 2-(8H-thieno[3,4]pyrrolo[1,5-a]imidazol-8-yl)cyclohexanol]: the results for the IC50 in assay [1] and in assay [2] were 161 nM and 377 nM, respectively.

As to `FC1(F)[C@@H]2C[C@@H](C3c4sccc4-c4cncn43)C[C@@H]21` (single isomer, unassigned) [Example 62, 8-[6,6-difluoro-3-bicyclo[3.1.0]cyclohexyl]-8H-thieno[3,4]pyrrolo[1,5-a]imidazole (trans)], the IC50 in assay [1] was determined as 199 nM; in assay [2] it was 446 nM.

For `O[C@@H]1CCCC1[C@H]1c2sccc2-c2cncn21` (single isomer, unassigned) [Example 107, (trans)-2-(8H-thieno[3′,2′:3,4]pyrrolo[1,2-c]imidazol-8-yl)cyclopentanol], in assay [1], the IC50 came out at 183 nM.

Consider `O[C@@H]1CCCC1[C@H]1c2sccc2-c2cncn21` (single isomer, unassigned) [Example 108, (trans)-2-(8H-thieno[3′,2′:3,4]pyrrolo[1,2-c]imidazol-8-yl)cyclopentanol], for which the IC50 in assay [1] is greater than 10000 nM.

For `O[C@@H]1CCCC1[C@H]1c2sccc2-c2cncn21` (single isomer, unassigned) [Example 109, (trans)-2-(8H-thieno[3′,2′:3,4]pyrrolo[1,2-c]imidazol-8-yl)cyclopentanol], the IC50 in assay [1] was greater than 10000 nM.

Turning to `O[C@@H]1CCCC1[C@H]1c2sccc2-c2cncn21` (single isomer, unassigned) [Example 110, (trans)-2-(8H-thieno[3′,2′:3,4]pyrrolo[1,2-c]imidazol-8-yl)cyclopentanol], the IC50 in assay [1] is greater than 10000 nM.

As for `OC1CCC(C2c3sccc3-c3cncn32)CC1` (single isomer, unassigned) [Example 115, 4-(8H-thieno[3,4]pyrrolo[1,5-a]imidazol-8-yl)-cyclohexanol], the 50% inhibitory concentration (IC50) in assay [1] came out at 3510 nM.

Turning to `OC1CCC(C2c3sccc3-c3cncn32)CC1` (single isomer, unassigned) [Example 116, 4-(8H-thieno[3,4]pyrrolo[1,5-a]imidazol-8-yl)-cyclohexanol], in assay [1], the IC50 is greater than 10000 nM.

In the case of `OC1CCC(C2c3sccc3-c3cncn32)CC1` (single isomer, unassigned) [Example 118, 4-(8H-thieno[3,4]pyrrolo[1,5-a]imidazol-8-yl)-cyclohexanol], in assay [1], the IC50 came out at 7290 nM.

As to `CC(C)(C(O)C1CCCCC1)C1c2sccc2-c2cncn21` (single isomer, unassigned) [Example 120, 1-cyclohexyl-2-methyl-2-(8H-thieno[3,4]pyrrolo[1,5-a]imidazol-8-yl)-propan-1-ol], the IC50 in assay [1] was greater than 10000 nM.

`CC(C)(C(O)C1CCCCC1)C1c2sccc2-c2cncn21` (single isomer, unassigned) [Example 121, 1-cyclohexyl-2-methyl-2-(8H-thieno[3,4]pyrrolo[1,5-a]imidazol-8-yl)-propan-1-ol]: the IC50 in assay [1] amounted to 585 nM.

As for `CC(C)(C(O)C1CCCCC1)C1c2sccc2-c2cncn21` (single isomer, unassigned) [Example 122, 1-cyclohexyl-2-methyl-2-(8H-thieno[3,4]pyrrolo[1,5-a]imidazol-8-yl)-propan-1-ol], the IC50 in assay [1] was greater than 10000 nM.

As for `OCCC1c2sccc2-c2cncn21` (stereo not drawn) [Example 11, 2-(8H-thieno[3′,2′:3,4]pyrrolo[1,2-c]imidazol-8-yl)ethanol], the IC50 in assay [1] came out at 5980 nM.

Consider `OC(CC1c2cscc2-c2cncn21)C1CCCCC1` (stereo not drawn) [Example 12, 1-cyclohexyl-2-(5H-thieno[3′,4′:3,4]pyrrolo[1,2-c]imidazol-5-yl)ethanol], for which the half-inhibitory concentration (IC50) in assay [1] amounted to 106 nM.

As for `CC(C)(C)C1c2sccc2-c2cncn21` (stereo not drawn) [Example 23, 8-(tert-butyl)-8H-thieno[3′,2′:3,4]pyrrolo[1,2-c]imidazole], the IC50 in assay [1] came to 5260 nM.

Regarding `CC(C)CC1c2sccc2-c2cncn21` (stereo not drawn) [Example 24, 8-isobutyl-8H-thieno[3′,2′:3,4]pyrrolo[1,2-c]imidazole], the half-inhibitory concentration (IC50) in assay [1] was 1030 nM.

For the compound `CC(C)C1c2sccc2-c2cncn21` (stereo not drawn) [Example 25, 8-isopropyl-8H-thieno[3,4]pyrrolo[1,5-a]imidazole], the IC50 in assay [1] came to 8120 nM.

`c1cc2c(s1)C(CCN1CCOCC1)n1cncc1-2` (stereo not drawn) [Example 30]: the IC50 in assay [1] is greater than 10000 nM.

Take `c1cc2c(s1)C(CCN1CCCCC1)n1cncc1-2` (stereo not drawn) [Example 31, 8-(2-(piperidin-1-yl)ethyl)-8H-thieno[3′,2′:3,4]pyrrolo[1,2-c]imidazole]: in assay [1], the IC50 was greater than 10000 nM.

On to `c1cc2c(s1)C(C1CCC1)n1cncc1-2` (stereo not drawn) [Example 32, 8-cyclobutyl-8-hydro-thieno[3,4]pyrrolo[1,5-a]imidazole], for which the half-maximal inhibitory concentration (IC50) in assay [1] came to 807 nM.

Consider `O[C@@H](C[C@@H]1c2sccc2-c2cncn21)C1CCC(F)(F)CC1` [Example 47, (1S)-1-(4,4-difluorocyclohexyl)-2-((R)-8H-thieno[3,4]pyrrolo[1,5-a]imidazol-8-yl)ethanol], for which the IC50 in assay [1] was determined as 1680 nM.

For `c1ccc2c(C3CCC(C4c5sccc5-c5nccn54)CC3)ccnc2c1` (stereo not drawn) [Example 96, 5-(4-(quinolin-4-yl)cyclohexyl)-5H-thieno[3′,2′:3,4]pyrrolo[1,2-a]imidazole], in assay [1], the IC50 is greater than 10000 nM.
